Tested on: endothelium-ablated preparations of the rat aorta
Experiment: Vasorelaxing effect to endothelium-ablated preparations of the rat aorta
Conditions: 10 min; endothelium-ablated rat aorta rings, contraction by 30 mM K^+, 37° C., sample compound cumulatively applied at intervals of 10 minutes; read-out: IC50 (50% inhibition concentration)
Method: Vasorelaxing effect to endothelium-ablated preparations of the rat aorta:
The aorta of each rat (body weight: 200 to 330 g) was isolated and cut at a width of about 3 mm. Endothelium was then ablated off to form a ring preparation. That preparation was incubated at 37° C., and then suspended under a load of 2 g in 10 ml of the Krebs-Henseleit solution which had been aerated with a mixed gas (95% O2, 5% CO2). Tension was isometrically recorded via an FD transducer ("T2-30-240", trade name; manufactured by Orientec) and a dynamic strain gauge ("6M81", trade name; manufactured by NEC-San-ei) Upon an elapsed time of 60 minutes or longer subsequent to the suspension, that is, after the preparation had become stable, 10^-7 M noradrenaline (Nor) was applied several times. Under contraction by 10^-7 M Nor, 10^-7 acetylcholine was applied. Preparations which were not relaxed by the application of 10^-7 acetylcholine were used in the experiment. 30 mM K^+ were applied. From the time point that its contraction had became uniform, a sample compound was cumulatively applied at intervals of 10 minutes so that the 50% inhibition concentration (IC50) was calculated.

## CC1(C)Oc2ccc(C#N)cc2[C@@H](N2CCCC2=O)[C@@H]1O (racemic) [Cromakalim, (±)-trans-6-cyano-2,2-dimethyl-4-(2-oxopyrrolidin-1-yl)-3,4-dihydro-2H-1-benzopyran-3-ol, reference compound]
  IC50: 134 nM

## CCC(=O)NN1CC(C)(C)Oc2ccc([N+](=O)[O-])cc21 [Compound No. 8, 2,2-Dimethyl-6-nitro-4-propanoylamino-1,4-benzoxazine]
  IC50: 12.6 nM

## C=CC(=O)NN1CC(C)(C)Oc2ccc([N+](=O)[O-])cc21 [compound 11]
  IC50: 28.8 nM

## CC1(C)CN(NC(=O)c2cccnc2)c2cc(C(F)(F)F)ccc2O1 [compound 20]
  IC50: 51.4 nM

## CCC1(CC)CN(NC(C)=O)c2cc(C(F)(F)F)ccc2O1 [compound 24]
  IC50: 37.9 nM

## CC(=O)NN1CC(C)(C)Oc2ccc(S(=O)(=O)C(F)(F)C(F)(F)F)cc21 [compound 27]
  IC50: 33.6 nM

## CC(=O)NN1CC(C)(C)Oc2ccc(S(=O)(=O)C(F)(F)F)cc21 [compound 56]
  IC50: 9.6 nM

## CCC(=O)NN1CC(C)(C)Oc2ccc(S(=O)(=O)C(F)(F)F)cc21 [compound 57]
  IC50: 15.2 nM

## CC1(C)CN(NC(=O)c2cccnc2)c2cc(S(=O)(=O)C(F)(F)F)ccc2O1 [compound 58]
  IC50: 14.3 nM
